# Assay results reported in the supplement of paper PMC10307832.
# How the values were obtained:
# Assay in all cases: relative viability (nuclei count vs DMSO), 5 days (fraction); higher = more cells survive
# [1] = compound: CC(C)C[C@H](NC(=O)[C@H](CCc1ccccc1)NC(=O)CN1CCOCC1)C(=O)N[C@@H](Cc1ccccc1)C(=O)N[C@@H](CC(C)C)C(=O)[C@@]1(C)CO1 [Carfilzomib] + Nc1ncn([C@H]2C[C@H](O)[C@@H](CO)O2)c(=O)n1 [Decitabine] (partner 2 µM)
# Outline: (§1)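 Lung cancer cell lines, seeded in 1536-well plates, were treated the following day by pin tool with a single drug or with five library-drug doses (not always all listed) in √10 steps on top of a fixed anchor-drug dose. Cells were fixed and nuclei stained in one step after 5 days, and nuclei were counted. Relative viability is the nuclei count for treated wells divided by that for vehicle wells, reported as medians of duplicate plates.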
# [2] = compound: O=C(c1cc(Cc2n[nH]c(=O)c3ccccc23)ccc1F)N1CCN(C(=O)C2CC2)CC1 [Olaparib] + CC1(C)CCC(c2ccc(Cl)cc2)=C(CN2CCN(c3ccc(C(=O)NS(=O)(=O)c4ccc(N[C@H](CCN5CCOCC5)CSc5ccccc5)c(S(=O)(=O)C(F)(F)F)c4)cc3)CC2)C1 [Navitoclax] (partner 0.5 µM)
# Outline: as §1
# [3] = compound: C[C@@H](Oc1cc(-c2cnn(C3CCNCC3)c2)cnc1N)c1c(Cl)ccc(F)c1Cl [Crizotinib] + Cc1nc(Nc2ncc(C(=O)Nc3c(C)cccc3Cl)s2)cc(N2CCN(CCO)CC2)n1 [Dasatinib] (partner 0.075 µM)
# Outline: as §1
# [4] = compound: CC(C)C[C@H](NC(=O)[C@H](CCc1ccccc1)NC(=O)CN1CCOCC1)C(=O)N[C@@H](Cc1ccccc1)C(=O)N[C@@H](CC(C)C)C(=O)[C@@]1(C)CO1 [Carfilzomib] + O=C(CCCCCCC(=O)Nc1ccccc1)NO [Vorinostat] (partner 1 µM)
# Outline: as §1
Cell Line,relative viability ([1]; first compound 0.001 µM),relative viability ([1]; first compound 0.003162 µM),relative viability ([1]; first compound 0.01 µM),relative viability ([1]; first compound 0.03162 µM),relative viability ([1]; first compound 0.1 µM),relative viability ([2]; first compound 0.08 µM),relative viability ([2]; first compound 0.253 µM),relative viability ([2]; first compound 2.53 µM),relative viability ([2]; first compound 8 µM),relative viability ([3]; first compound 0.01 µM),relative viability ([3]; first compound 0.03162 µM),relative viability ([3]; first compound 0.1 µM),relative viability ([3]; first compound 0.3162 µM),relative viability ([3]; first compound 1 µM),relative viability ([4]; first compound 0.001 µM),relative viability ([4]; first compound 0.003162 µM),relative viability ([4]; first compound 0.01 µM),relative viability ([4]; first compound 0.03162 µM),relative viability ([4]; first compound 0.1 µM)
NCI-H2085,0.589,0.608,0.584,0.421,0.297,1.25,1.03,1.12,0.929,0.209,0.232,0.228,0.282,0.28,0.71,0.879,0.497,0.222,0.3
LU99A,0.952,1.13,0.961,0.821,0.317,0.775,0.635,0.547,0.289,0.434,0.565,0.501,0.55,0.566,0.467,0.649,0.404,0.225,0.167
NCI-H1944,0.405,0.447,0.449,0.453,0.234,0.95,0.842,1.07,0.64,0.193,0.22,0.207,0.179,0.203,0.523,0.744,0.527,0.505,0.215
NCI-H3122,0.451,0.441,0.421,0.462,0.216,0.948,0.976,0.964,0.86,0.786,0.799,0.836,0.74,0.735,0.841,0.819,1.06,0.747,0.329
LCLC-97TM1,0.234,0.283,0.226,0.115,0.0656,0.528,0.259,0.346,0.405,0.827,0.763,0.784,0.816,0.846,0.705,1.03,0.346,0.0531,0.0462
LXF-289,0.368,0.399,0.375,0.162,0.0931,1.03,0.9,1.02,0.96,0.306,0.209,0.223,0.184,0.247,0.747,0.795,0.738,0.0661,0.101
HCC-78,0.622,0.766,0.672,0.554,0.302,0.977,0.738,0.819,0.572,,0.335,0.448,0.361,0.322,0.433,0.467,0.461,0.303,0.283
NCI-H2405,0.803,0.881,0.763,0.57,0.225,1.21,0.878,0.869,0.677,0.244,0.237,0.192,0.217,0.196,0.998,1.17,1.06,0.376,0.148
NCI-H727,0.897,0.937,0.836,0.9,0.746,0.42,0.344,0.321,0.204,,0.398,0.348,,0.341,0.999,1.14,1.45,1.01,0.651
LC-2-ad,0.878,0.811,0.75,0.861,0.557,0.529,0.431,0.365,0.316,0.46,0.586,0.595,0.382,0.453,0.811,0.755,0.75,0.44,0.245
